Each structure is given as a SMILES string. Counter-ions that a name gives are not always drawn. Residues, ends and D or L forms follow the SMILES beside them. *: point of attachment. Tfa = O=C(C(F)(F)F)*; NHPh = c1ccc(N*)cc1

In general, melting point refers to the temperature, or range, at which the solid turns liquid. `CCCn1c(=O)c2[nH]c(C(C)(C)C)nc2n(CCN(C)C(C)=O)c1=O`: the melting point lay within 149 to 152 °C.
The compound `O=C(Nc1ccc(C(F)(F)F)cc1)NC1CCN(S(=O)(=O)c2ccc(Cl)cc2)CC1` returned a melting point of 266 to 270 °C.
The value for `C/C(=C(\C#N)C(N)=S)N1CCCCCC1` was 158 to 161 °C; that for `CCCCc1ccc2c(=O)c(O)c(-c3cc(O)c(O)c(O)c3)oc2c1` was 142 °C.
In turn, `COC(=O)c1ccsc1N=C=S` yielded a melting point of 63 to 65 °C.
Regarding `COc1ccc(C(=O)Nc2ccc(C)cc2)cc1N`, the melting point was in the range of 190 to 194 °C.
For the compound `Cc1nc2c(O)c(CCC(O)c3ccccc3)c(C(=O)N(C)C)cc2n1C` (stereo not drawn), the melting point was 216 to 218 °C.
With `Clc1ccc(Nc2nnc(-c3ccc(-c4ccccc4)cc3)s2)cc1Cl`, the melting point was 306 °C.
Regarding `CC(NC(N)=C[N+](=O)[O-])C1=CCC=CC1` (stereo not drawn), the melting point fell in the range of 120 to 125 °C.
On to `Cc1c(Nc2c(C#N)cncc2-c2nccs2)ccc2[nH]ccc12`, for which the melting point was 245 to 247 °C.
`COC(=O)C=CCC1C(=O)N2C(C(=O)OCC(Cl)(Cl)Cl)=CCC12` (stereo not drawn) showed a melting point of 101 to 102 °C.
`O=C1CC(c2cccc(-c3nc(CCl)co3)c2)=Nc2ccc(-n3cccc3)cc2N1` registered a melting point of 206 to 207 °C.
The compound `COc1ccc(C(=O)C=Cc2cc(O)c(O)c([N+](=O)[O-])c2)cc1` returned a melting point of 222 to 228 °C.
`Cc1ccc(S(=O)(=O)Nc2ccc3cccc(N4CCN(C)CC4)c3c2)cc1` displayed a melting point of 180 °C.
The value for `CC(C)CN(C)c1cc2c(cc1C#N)NC(=O)CC(c1cccc(-n3nncc3CN3CCCC3)c1)=N2` was 174 °C; that for `COc1ccc(C2(CCO)CCN(C(=O)c3cc(OC)c(OC)c(OC)c3)C2)cc1OC` (stereo not drawn) was 60 to 62 °C; that for `CC(C)Cc1cccc(CCCn2c(=O)c3c(Cl)cc(Cl)cc3n(Cc3ccccc3)c2=O)c1` was 108 to 111 °C.
The same measure for `CCc1cccc2[nH]c(=O)oc(=O)c12`: 202 to 204 °C; for `CCOC(=N)c1cccc(Cc2ccccc2)c1`: 121 to 122 °C.
On to `CC(C)(C)n1ncc(OCc2ccc(Oc3ccc(Cl)cc3)nc2)c(Cl)c1=O`, for which the melting point lay within 150 to 154 °C.
Compound `O=C(c1ccccc1)n1c(=O)c(C(F)(F)F)cn(C2CC(OCc3ccccc3)C(CO)O2)c1=O` (stereo not drawn) came in with a melting point of 154 to 155 °C.
With `CC(C)(C)c1ccc(CNC(=O)NCc2ccc(NS(C)(=O)=O)c(F)c2)cc1`, the melting point stood at 95 °C.
Compound `NC(=O)NC1CCC(c2ccccc2-n2nc(C(F)(F)F)cc2C(F)(F)F)CC1` (stereo not drawn) yielded a melting point of 185 to 188 °C.
For `O=C(O)COc1ccc(SCc2ccc(OCc3ccc(Cl)cc3)cc2)c2c1CCC2`, the melting point lay within 170 to 172 °C.
Turning to `CSc1sc(-c2nc(C)no2)c2c1C(=O)CC(C)(C)C2`, the melting point lay in the range of 177 to 180 °C.
For the compound `O=[N+]([O-])c1cnc(Sc2n[nH]c(-c3cccs3)n2)s1`, the melting point fell in the range of 179 to 181 °C.
In the case of `Clc1nccnc1Sc1ccccc1`, the melting point lay within 100 to 111 °C.
In turn, `CCSC1=C(c2ccc(O)cc2)C(=O)c2cc(O)cc(O)c21` had a melting point of 75 to 77 °C.
The value for `O=c1c2c(Cc3cccs3)n[nH]c2c2cccnc2n1-c1cccc(OC(F)(F)F)c1` was 234 to 238 °C.
For the compound `CC1(C)Oc2ccc(C#N)cc2[C@@H](NC(=O)c2ccc(Cl)cc2)[C@@H]1O` (relative stereo), the melting point is 226 to 229 °C.
`CC(=O)OCc1nc(-c2ccc3c(c2)OCO3)c2cc3c(cc2n1)OCO3` returned a melting point of 144 to 147 °C.
The compound `O=Cc1ccc(-c2cc(Br)ccn2)o1` came in with a melting point of 105 to 106 °C.
In the case of `C=CCSc1nnc(OCC)c2c1CCCC2`, the melting point was in the range of 39 to 41 °C.
The same measure for `Cc1[nH]cnc1CC1CCc2c(C)c3cc(Cl)ccc3n2C1=O` (stereo not drawn): 244 to 246 °C.
As for `CCCn1c(COCC)nc2c(N)nc3cc(OC4CCN(C(=O)OC(C)(C)C)CC4)ccc3c21`, the melting point lay within 194 to 195 °C.
`Cn1ncc2c1-c1c(Nc3ccccc3)sc(C(N)=O)c1CC2` showed a melting point of 140 to 141 °C.
`O=C1NC(=O)C(c2ccc(Br)s2)O1` (stereo not drawn) came in with a melting point of 139 to 140 °C.
`O=C1CC(c2ccccc2)Cc2nccc(Cl)c21` (stereo not drawn) returned a melting point of 71 to 72 °C.
For `CC(=O)NNC(COCc1cc(C)cc(C)c1)C1c2ccccc2C=Cc2ccccc21` (stereo not drawn), the melting point was 115 to 117 °C.
Turning to `O=c1c(CCCc2cncnc2)cc2cccnc2n1-c1cccc([N+](=O)[O-])c1`, the melting point lay within 175 to 176 °C.
The compound `CCOCc1nc2c(N)nc3cc(OCCCCCCNC(C)=O)ccc3c2n1CC(C)(C)NC(=O)NC(C)C` gave a melting point of 90 to 110 °C.
`COC1CCC(OS(C)(=O)=O)C(CN=[N+]=[N-])O1` (stereo not drawn): the melting point lay in the range of 54 to 56 °C.
In the case of `COc1ccc2[nH]cc(C3=CCC4(CC3)OCCO4)c2c1`, the melting point is 161 to 162 °C.
The same measure for `Cn1c(COc2ccc(CC3SC(=O)NC3=O)cc2)nc2ccc(Oc3cccc(NC(=O)Nc4ccc5c(c4)OCO5)c3)cc21` (stereo not drawn): 179 to 182 °C.
For the compound `COC(=O)[C@H](COC(C)(C)C)NC(=O)[C@@H](NC(=O)[C@H](Cc1ccccc1)NC(=O)[C@@H](NC(=O)OCc1ccccc1)[C@@H](C)OC(C)(C)C)[C@@H](C)OC(C)(C)C`, the melting point was in the range of 114 to 115 °C.
`O=C1c2ccccc2C(=O)N1CC(=O)N1c2ccccc2N(Cc2ccncc2)C(=O)[C@H]2CCC[C@H]21` (relative stereo) yielded a melting point of 211 to 212 °C.
For `C=Cc1cc(O)cc2nc(-c3ccc(O)cc3)oc12`, the melting point was in the range of 249 to 250 °C.
The value for `CC(C)(Nc1cccc(C(=N)N)c1)C(=O)Nc1ccc(-c2ccccc2S(N)(=O)=O)cc1` was 197 °C; that for `COC(=O)COCc1cc(C(C)(C)C)c(O)c(C(C)(C)C)c1` was 132 to 133 °C; that for `CSC(=C[N+](=O)[O-])NCCCCc1nccs1` was 75.5 to 76 °C.
`CC[C@H](CO)NC(=O)c1ccc(C(=O)N2CCN(c3ncccc3NC(C)C)CC2)nc1` had a melting point of 85 to 88 °C.
In the case of `COC(=O)c1ccc(-c2nc(-c3ccc4c(c3)C(C)(C)CCC4(C)C)no2)cc1`, the melting point was in the range of 166 to 168 °C.
The value for `CC(C(=O)O)C(=O)c1ncc(Cl)cc1F` (stereo not drawn) was 101 to 102 °C.
The value for `CCNc1ccc(CN2OCC(C)(C)C2=O)c(Cl)c1` was 135 to 138 °C.
`Cc1cc(C)cc(C(=O)OCC2(N3CCN(C(=O)OC(C)(C)C)CC3)Cc3ccccc3C2)c1` came in with a melting point of 139 °C.
As for `COc1cc(C2NC(=O)C(C)S2)cc(OC)c1OC` (stereo not drawn), the melting point lay in the range of 133 to 134 °C.
`O=C(O)c1cn(C2CC2)c2c(F)c(N3CC4CC3CN4)c(F)cc2c1=O` (stereo not drawn) came in with a melting point of 288 to 290 °C.
The same measure for `COc1ccc(C(=O)c2c(N)sc(C)c2C)cc1`: 132 to 133 °C; for `CS(=O)(=O)Nc1cccc(N=C2NCCN2)c1`: 229 to 230 °C; for `COc1cc(Nc2c(C#N)cnc3cc(-c4coc(CN5CCN(C)CC5)c4)c(OC)cc23)c(Cl)cc1Cl`: 179 to 181 °C.
The value for `COC(=O)CSc1nc(N)c(C=O)nc1Cl` was 103 to 104 °C; that for `O=C(O)CCCNc1cc(Oc2ccc(C(F)(F)F)cc2Cl)ccc1[N+](=O)[O-]` was 126 to 127 °C; that for `O=C(Nc1nc(-c2ccco2)c(C(=O)C2CCOCC2)s1)c1ccc(F)cc1` was 131 to 132 °C.
The value for `CNc1snc(C)c1[N+](=O)[O-]` was 153 °C; that for `O=P(O)(O)CCCCCCC(F)(F)C(F)(F)C(F)(F)C(F)(F)F` was 107 to 108 °C.
In turn, `Cn1c(SCC(=O)C23CC4CC(CC(C4)C2)C3)nnc1-c1cccs1` yielded a melting point of 156 to 157 °C.
Compound `CCn1cnc2c(Nc3ccc(C(F)(F)F)cc3)nc(NCCO)nc21` displayed a melting point of 191 to 192 °C.
The value for `O=P(O)(O)C(O)(CCCc1ccc(Cl)cc1)P(=O)(O)O` was 181 °C.
In turn, `CCc1ccc2nc(C)[nH]c2c1N1CC(CI)OC1=O` (stereo not drawn) had a melting point of 143 to 144 °C.
In turn, `O=c1nc(-c2ccccn2)sc2cc(Cl)ccc12` gave a melting point of 245 to 246 °C.
The value for `N#CC(=Cc1ccc2c(c1)OCO2)CN1CCOCC1` was 82 to 84 °C; that for `COc1ccc2cc(CBr)ccc2c1Br` was 92 to 94 °C.
`COC1(OC)CN(c2cc3c(cc2F)c(=O)c(C(=O)O)cn3-c2ccc(F)cc2F)CC1C` (stereo not drawn) yielded a melting point of 193 to 194 °C.
For `CCOC(=O)c1ccc(N(C(=O)OCC)C(=O)c2ccc(C(=O)C(C)(C)C)cc2)cc1`, the melting point was in the range of 84 to 86 °C.
As for `CC1(C)CCC(C)(C)c2cc(C(N)C(=O)Nc3ccc(C(=O)O)c(O)c3)ccc21` (stereo not drawn), the melting point lay in the range of 240 to 241 °C.
`O=C1C=CC(O)(c2ccccc2)C=C1` came in with a melting point of 102 to 103 °C.
In turn, `Cc1ccccc1C(=O)Nc1ccc(C(=O)N2CCCC(COS(C)(=O)=O)c3ccccc32)cc1` (stereo not drawn) displayed a melting point of 189 to 190 °C.
For the compound `CNC(=O)Nc1cc(CC(C)C)ccc1-c1ccccc1S(=O)(=O)Nc1onc(C)c1C`, the melting point was in the range of 172 to 174 °C.
In turn, `COc1cc(N)c(C(N)=O)c(OC)c1` showed a melting point of 117 to 119 °C.
The value for `CC12CCC(O)C(O)C1=CCC1C2CCC2(C)C(O)C(O)CC12` (stereo not drawn) was 238 to 241 °C; that for `Cc1ccc(OCc2nc(-c3ccccc3)oc2C)cn1` was 103 to 104 °C.
The same measure for `COc1ccc(CC(=O)NC(NC(=NC#N)Nc2cccnc2OC)C(C)(C)C)cc1OC` (stereo not drawn): 146 to 147 °C; for `NCCCN1CCC(c2noc3cc(F)ccc23)CC1`: 59 to 62 °C.
`O=C1Cc2cc(Oc3ccccc3)ccc2N1` displayed a melting point of 148 to 150 °C.
Consider `C[C@H](NC(=O)C(F)(F)F)C(=O)N1CCC[C@H]1C(=O)Nc1ccccc1` (Tfa-Ala-Pro-NHPh), for which the melting point is 204 to 207 °C.
The same measure for `COc1ccc2c(c1)c(CC(=O)O[C@H]1CO[C@H]3[C@H]1OC[C@H]3O[N+](=O)[O-])c(C)n2C(=O)c1ccc(Cl)cc1`: 159 to 160 °C.
The value for `CCC(CC)C(NS(=O)(=O)c1ccc(Cl)s1)C(C)O` (stereo not drawn) was 95 to 98 °C; that for `COCC(=O)c1cnc2c(OC)cccc2c1Nc1ccccc1C` was 122 to 123 °C.

The values above are taken from a melting point compilation (Tetko et al.; mined from patent text by program, amines drawn as free bases though some values may be those of a salt).
